Assay results from ChEMBL document CHEMBL1201862, “PubChem BioAssay data set” (2004).
pIC50: −log10 of the molar value. The source made the active and inactive calls.

Assays:
[1] = BJeHLT cell viability loss – BJeHLT cells, dry powder, counter-screen for Ras selective lethality project, dose response (AID 493052); type: functional, cell-based; conditions: Homo sapiens
[2] = HRAS-V12 fibroblast viability reduction – cell-based, Alamar Blue, dry powder, Ras selective lethality project, primary screen (AID 493045); type: functional; conditions: BJeLR
[3] = BJeH cell viability loss – BJeH cells, dry powder, counter-screen for Ras selective lethality project, dose response (AID 493054); type: functional, cell-based
[4] = DRD BJ cell killing, Ras synthetic lethality – DRD BJ fibroblasts, HRASV12, dry powder, dose response (AID 493049); type: functional, cell-based
[5] = biological target: Female germline-specific tumor suppressor gld-1 (Caenorhabditis elegans, UniProt Q17339); experiment: blockers of GLD-1/TGE RNA complex formation – biochemical, fluorescence polarization, C. elegans, dose response (AID 2802);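 note: fluorescence polarization of labeled TGE RNA bound by purified gld-1 protein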
[6] = biological target: Genome polyprotein (dengue virus type 2, UniProt P29990); experiment: flavivirus cap methylation enzyme inhibition – biochemical, confirmation dose response, primary screen (AID 588689); type: functional
[7] = biological target: Protein Rev (Human immunodeficiency virus type 1 group M subtype B (isolate HXB2)(HIV-1), UniProt P04618); experiment: blockers of HIV Rev/RRE RNA complex – biochemical, fluorescence polarization, HIV-1, dose response (AID 434976); parameters: species or system Human immunodeficiency virus 1
[8] = test system: Vero; experiment: viability of Vero cells under compound – cytotoxicity control for flavivirus capping enzyme inhibitors (AID 588742); type: functional; conditions: Chlorocebus sabaeus
[9] = alpha-synuclein stem-loop luciferase translation blockers – H4 neuroglioma cells, luminescence, confirmation (AID 1988); type: functional, cell-based
[10] = luciferase reporter signal suppression in cells – H4 neuroglioma cells, luminescence, dose response (AID 1990); type: functional, cell-based
[11] = HEK-293T cell viability reduction – luminescence, B-cell screen hits, cytotoxicity control for BCR NF-kB inhibitor project, dose response (AID 489021); type: functional, cell-based;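 note: HEK-293T cells carrying an NF-kB luciferase reporter; cells exposed to compound for about 14 hours before viability readout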
[12] = Luminescence Cell-Based Dose Response HTS to Identify Inhibitors of 5'UTR Stem-Loop Driven Prion Protein mRNA Translation in H4 Neuroglioblastoma Cells. [Related pubchem assays: 1827 (Project Summary), 1813 (Primary HTS)]; type: functional
[13] = protection from phage-mediated lysis, alamar blue read-out – E. coli UTI89, K1F phage, bacterial capsule biogenesis inhibitors (AID 488966); type: functional
[14] = cells; type: functional
[15] = biological target: Scavenger receptor class B member 1 (Mus musculus, UniProt Q61009); experiment: mouse SR-BI DiI-HDL uptake blockers – ldlA[mSR-BI] cells, fluorescence, cherry pick, dose response (AID 493194); type: functional, cell-based;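 note: cellular uptake of fluorescent DiI-labeled HDL measured as cell fluorescence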
[16] = biological target: Wee1-like protein kinase (Homo sapiens, UniProt P30291); experiment: HeLa cell cycle G2/M accumulation – FACS, mechanism study for Wee1 degradation inhibitor project, late-stage follow-up, panel member Wee1 Degradation (AID 2088)
[17] = biological target: G2/mitotic-specific cyclin-B1 (Homo sapiens, UniProt P14635); experiment: HeLa cell cycle G2/M accumulation – FACS, mechanism study for Wee1 degradation inhibitor project, late-stage follow-up, panel member Cyclin B Degradation (AID 2088)
[18] = biological target: T1, Corticotropin-releasing factor receptor 2/Corticotropin-releasing factor-binding protein (Homo sapiens, UniProt P24387+Q13324); experiment: activators of CRF receptor 2 with binding protein – uHTS hits, confirmation (AID 602473); type: functional; conditions: read-out: EC50_Mean
T1 sequence (Q13324 whole entry): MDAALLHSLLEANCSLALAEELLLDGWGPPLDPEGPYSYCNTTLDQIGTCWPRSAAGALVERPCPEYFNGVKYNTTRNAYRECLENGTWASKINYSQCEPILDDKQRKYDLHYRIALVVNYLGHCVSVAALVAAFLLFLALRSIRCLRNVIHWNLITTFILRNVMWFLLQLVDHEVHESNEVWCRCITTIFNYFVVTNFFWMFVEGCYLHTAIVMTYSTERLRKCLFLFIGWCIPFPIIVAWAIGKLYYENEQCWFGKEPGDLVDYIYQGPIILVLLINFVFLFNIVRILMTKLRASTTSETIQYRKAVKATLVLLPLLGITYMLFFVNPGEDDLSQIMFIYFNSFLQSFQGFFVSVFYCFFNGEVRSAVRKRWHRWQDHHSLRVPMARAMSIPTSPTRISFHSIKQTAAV
T1 sequence (P24387 whole entry): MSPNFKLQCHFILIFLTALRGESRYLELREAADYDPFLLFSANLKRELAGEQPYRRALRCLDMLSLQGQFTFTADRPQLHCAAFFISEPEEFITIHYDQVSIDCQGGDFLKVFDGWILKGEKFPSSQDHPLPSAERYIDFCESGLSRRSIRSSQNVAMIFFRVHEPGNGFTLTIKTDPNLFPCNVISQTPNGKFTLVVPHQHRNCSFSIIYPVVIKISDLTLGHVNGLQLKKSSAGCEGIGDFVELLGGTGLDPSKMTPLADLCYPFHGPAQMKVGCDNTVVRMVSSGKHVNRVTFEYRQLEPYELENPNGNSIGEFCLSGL

[19] = biological target: T2, Kappa-type opioid receptor (Homo sapiens, UniProt P41145); type: functional
[20] = biological target: T3, Beta-galactosidase (Escherichia coli, UniProt Q8VNN2); experiment: detection-enzyme interference by beta-gal modulators – biochemical, E. coli enzyme, set 3, artefact control for CCR6 antagonist project, dose response (AID 504712); type: functional
[21] = biological target: T3, Beta-galactosidase; type: functional
[22] = biological target: T2, Kappa-type opioid receptor; type: functional; remark: listed apart in the source
[23] = viability loss in HeLa cells – cytotoxicity control for MgcRacGAP inhibitor project, dose response (AID 624300); type: functional
[24] = biological target: Cyclin-dependent kinase 5/CDK5 activator 1 (Homo sapiens, UniProt Q00535); experiment: blockade of human CDK5 activity – biochemical, cherry-picked samples, set 2, dose response (AID 504545)
[25] = biological target: Beta Lactamase (Pseudomonas aeruginosa, UniProt Q932Y6); experiment: BLA reporter interference, concentration series – BLA reporter cells, FRET fluorescence, artefact control for NOD2-RIPK2 interaction inhibitor project, dose response (AID 651552); type: functional, cell-based
[26] = HGIII-sPLA2 enzyme inhibition potency – biochemical, QFRET, IC50, dose response (AID 743457);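 note: green fluorescence rise as the enzyme cleaves BODIPY PC-A2 in liposomes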
[27] = biological target: Heat shock protein HSP 90-alpha (Homo sapiens, UniProt P07900); type: functional, organism-based
[28] = biological target: T4, Rac GTPase-activating protein 1 (Homo sapiens, UniProt Q9H0H5); experiment: blockers of MgcRacGAP-driven Rac1 GTP hydrolysis – biochemical, ADP Hunter fluorescence, primary and confirmatory, confirmation (AID 624330); type: functional
T4 sequence (Q9H0H5 whole entry): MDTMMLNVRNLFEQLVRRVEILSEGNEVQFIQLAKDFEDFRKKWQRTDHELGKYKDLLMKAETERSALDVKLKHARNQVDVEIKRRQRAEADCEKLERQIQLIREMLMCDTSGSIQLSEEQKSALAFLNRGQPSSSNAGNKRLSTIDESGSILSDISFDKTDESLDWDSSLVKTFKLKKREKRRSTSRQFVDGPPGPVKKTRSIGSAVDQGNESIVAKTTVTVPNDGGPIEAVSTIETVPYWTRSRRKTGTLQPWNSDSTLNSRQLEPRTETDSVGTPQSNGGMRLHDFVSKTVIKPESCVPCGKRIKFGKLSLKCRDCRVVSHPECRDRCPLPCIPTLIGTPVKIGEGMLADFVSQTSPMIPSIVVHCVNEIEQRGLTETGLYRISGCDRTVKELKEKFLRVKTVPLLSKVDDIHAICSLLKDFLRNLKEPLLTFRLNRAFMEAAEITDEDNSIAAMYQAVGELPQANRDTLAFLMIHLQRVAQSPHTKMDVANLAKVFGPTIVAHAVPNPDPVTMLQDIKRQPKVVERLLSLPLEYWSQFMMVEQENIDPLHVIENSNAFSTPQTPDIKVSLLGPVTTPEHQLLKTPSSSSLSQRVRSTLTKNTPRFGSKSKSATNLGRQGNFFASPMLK

[29] = biological target: Matrix metalloproteinase-14 (Homo sapiens, UniProt P50281); experiment: Dose Response confirmation of uHTS hits for a small molecule inhibitors of MT1-MMP activation in a fluorescence assay set 1.; type: functional
[30] = Fluorescence-based cell-based high throughput dose response assay for inhibitors of the interaction of nucleotide-binding oligomerization domain containing 2 (NOD2) and the receptor-interacting serine-threonine kinase 2 (RIPK2).; type: functional; conditions: Homo sapiens
[31] = ADP-Glo luciferase signal interference – biochemical, luminescence, cherry-picked samples, set 2, artefact control for CDK5 inhibitor project, dose response (AID 504546); type: functional, cell-based
[32] = biological target: T5, Histone-lysine N-methyltransferase NSD2 (Homo sapiens, UniProt O96028); type: biochemical
T5 sequence (O96028 whole entry): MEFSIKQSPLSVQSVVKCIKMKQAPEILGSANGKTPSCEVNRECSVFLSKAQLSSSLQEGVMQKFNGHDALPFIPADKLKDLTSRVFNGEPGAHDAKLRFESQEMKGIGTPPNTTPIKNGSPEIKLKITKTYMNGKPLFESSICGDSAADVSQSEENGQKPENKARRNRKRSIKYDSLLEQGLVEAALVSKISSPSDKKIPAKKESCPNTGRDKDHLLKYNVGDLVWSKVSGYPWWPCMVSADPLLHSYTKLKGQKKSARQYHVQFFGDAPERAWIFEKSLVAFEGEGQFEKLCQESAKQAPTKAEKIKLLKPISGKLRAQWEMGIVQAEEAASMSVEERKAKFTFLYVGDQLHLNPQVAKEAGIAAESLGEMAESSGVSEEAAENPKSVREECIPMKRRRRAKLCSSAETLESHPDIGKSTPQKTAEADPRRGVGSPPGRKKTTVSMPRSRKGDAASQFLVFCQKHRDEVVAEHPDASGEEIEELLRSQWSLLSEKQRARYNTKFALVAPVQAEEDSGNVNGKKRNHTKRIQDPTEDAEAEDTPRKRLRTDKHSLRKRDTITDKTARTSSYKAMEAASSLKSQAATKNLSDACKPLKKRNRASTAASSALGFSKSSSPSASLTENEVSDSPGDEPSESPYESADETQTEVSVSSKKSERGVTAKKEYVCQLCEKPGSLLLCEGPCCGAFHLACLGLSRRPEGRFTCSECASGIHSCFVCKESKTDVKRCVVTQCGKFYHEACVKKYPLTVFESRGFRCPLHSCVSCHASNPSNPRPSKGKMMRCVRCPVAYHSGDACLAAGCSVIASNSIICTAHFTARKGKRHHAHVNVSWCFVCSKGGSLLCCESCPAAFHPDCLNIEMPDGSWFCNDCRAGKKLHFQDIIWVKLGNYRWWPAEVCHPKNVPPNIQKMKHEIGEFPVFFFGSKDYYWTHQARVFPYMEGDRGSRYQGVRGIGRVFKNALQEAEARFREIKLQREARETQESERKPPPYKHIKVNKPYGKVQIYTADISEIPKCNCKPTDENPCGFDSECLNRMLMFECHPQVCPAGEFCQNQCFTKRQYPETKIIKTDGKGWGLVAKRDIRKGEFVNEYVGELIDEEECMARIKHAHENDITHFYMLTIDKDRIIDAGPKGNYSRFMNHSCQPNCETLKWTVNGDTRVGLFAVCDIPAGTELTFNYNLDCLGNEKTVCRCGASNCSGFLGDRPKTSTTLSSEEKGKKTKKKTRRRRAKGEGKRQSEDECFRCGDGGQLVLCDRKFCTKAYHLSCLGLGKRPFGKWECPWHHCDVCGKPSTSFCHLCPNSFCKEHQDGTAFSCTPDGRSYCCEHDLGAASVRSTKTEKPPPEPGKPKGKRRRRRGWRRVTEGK

[33] = biological target: Nonstructural protein 1 (Influenza A virus, UniProt Q194T2); type: functional, Influenza A virus (A/California/07/2009(H1N1))
[34] = biological target: Glucose-6-phosphate 1-dehydrogenase (Homo sapiens, UniProt P11413); experiment: inhibition of Homo sapiens G6PD, dose series – biochemical, fluorescence, selectivity assay for P. falciparum G6PD inhibitor project, dose response (AID 504792); type: functional

T3 sequence (Q8VNN2 whole entry): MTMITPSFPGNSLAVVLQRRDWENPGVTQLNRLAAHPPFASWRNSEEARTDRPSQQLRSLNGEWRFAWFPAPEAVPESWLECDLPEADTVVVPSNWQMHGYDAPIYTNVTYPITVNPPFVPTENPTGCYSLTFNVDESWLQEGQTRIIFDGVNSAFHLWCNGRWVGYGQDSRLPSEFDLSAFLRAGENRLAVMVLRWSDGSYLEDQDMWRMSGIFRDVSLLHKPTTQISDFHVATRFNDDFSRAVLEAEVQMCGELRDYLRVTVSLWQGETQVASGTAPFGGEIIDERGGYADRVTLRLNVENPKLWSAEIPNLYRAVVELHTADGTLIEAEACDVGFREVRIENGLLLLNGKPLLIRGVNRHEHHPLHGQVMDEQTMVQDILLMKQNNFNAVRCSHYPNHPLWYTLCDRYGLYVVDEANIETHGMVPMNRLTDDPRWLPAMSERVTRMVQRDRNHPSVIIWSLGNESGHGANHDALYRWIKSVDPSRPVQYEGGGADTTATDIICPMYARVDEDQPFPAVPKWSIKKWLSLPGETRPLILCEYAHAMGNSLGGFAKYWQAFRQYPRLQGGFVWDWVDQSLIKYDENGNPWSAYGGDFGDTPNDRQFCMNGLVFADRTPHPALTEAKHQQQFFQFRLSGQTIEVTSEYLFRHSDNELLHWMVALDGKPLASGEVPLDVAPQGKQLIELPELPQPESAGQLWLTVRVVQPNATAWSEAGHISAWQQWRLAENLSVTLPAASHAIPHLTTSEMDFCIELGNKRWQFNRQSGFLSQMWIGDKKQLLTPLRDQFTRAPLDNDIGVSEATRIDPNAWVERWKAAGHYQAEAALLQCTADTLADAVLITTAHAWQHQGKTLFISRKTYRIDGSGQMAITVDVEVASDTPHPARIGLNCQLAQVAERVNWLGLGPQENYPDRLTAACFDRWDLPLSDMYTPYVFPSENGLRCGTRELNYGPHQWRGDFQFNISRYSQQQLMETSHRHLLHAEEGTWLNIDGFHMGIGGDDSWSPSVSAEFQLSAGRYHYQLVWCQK
T2 sequence (P41145 whole entry): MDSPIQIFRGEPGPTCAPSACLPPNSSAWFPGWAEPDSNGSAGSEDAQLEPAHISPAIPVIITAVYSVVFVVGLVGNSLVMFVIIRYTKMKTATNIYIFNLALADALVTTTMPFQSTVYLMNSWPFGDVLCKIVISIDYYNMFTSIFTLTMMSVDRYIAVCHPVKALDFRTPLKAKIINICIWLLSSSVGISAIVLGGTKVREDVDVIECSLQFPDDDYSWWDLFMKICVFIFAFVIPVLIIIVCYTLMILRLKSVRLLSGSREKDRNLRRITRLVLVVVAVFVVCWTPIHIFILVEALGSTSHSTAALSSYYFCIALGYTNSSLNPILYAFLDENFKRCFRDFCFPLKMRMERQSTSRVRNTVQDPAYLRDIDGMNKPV
Scavenger receptor class B member 1, sequence (Q61009 whole entry): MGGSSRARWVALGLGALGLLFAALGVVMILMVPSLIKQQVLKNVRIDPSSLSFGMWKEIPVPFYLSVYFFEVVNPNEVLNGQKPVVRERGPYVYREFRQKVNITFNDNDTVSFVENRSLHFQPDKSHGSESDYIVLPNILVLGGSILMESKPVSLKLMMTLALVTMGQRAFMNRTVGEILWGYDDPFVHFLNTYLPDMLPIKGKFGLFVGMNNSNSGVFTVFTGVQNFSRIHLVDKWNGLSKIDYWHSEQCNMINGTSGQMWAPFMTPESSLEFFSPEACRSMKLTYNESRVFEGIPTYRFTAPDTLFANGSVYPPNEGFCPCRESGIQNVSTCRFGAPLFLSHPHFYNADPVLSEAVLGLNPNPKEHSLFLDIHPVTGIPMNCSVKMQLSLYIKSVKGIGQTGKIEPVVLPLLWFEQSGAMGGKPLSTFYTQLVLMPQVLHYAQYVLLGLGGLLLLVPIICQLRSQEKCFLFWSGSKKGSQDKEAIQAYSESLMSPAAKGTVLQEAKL
Beta Lactamase, sequence (Q932Y6 whole entry): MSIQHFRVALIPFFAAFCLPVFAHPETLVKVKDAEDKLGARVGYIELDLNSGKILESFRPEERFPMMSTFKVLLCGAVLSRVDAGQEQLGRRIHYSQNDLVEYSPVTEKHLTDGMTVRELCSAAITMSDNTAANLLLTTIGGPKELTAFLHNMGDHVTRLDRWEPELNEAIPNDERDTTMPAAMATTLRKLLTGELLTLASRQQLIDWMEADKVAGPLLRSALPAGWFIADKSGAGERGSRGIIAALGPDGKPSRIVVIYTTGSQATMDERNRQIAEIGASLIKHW
Genome polyprotein, sequence (P29990 2492-3391 limits assumed): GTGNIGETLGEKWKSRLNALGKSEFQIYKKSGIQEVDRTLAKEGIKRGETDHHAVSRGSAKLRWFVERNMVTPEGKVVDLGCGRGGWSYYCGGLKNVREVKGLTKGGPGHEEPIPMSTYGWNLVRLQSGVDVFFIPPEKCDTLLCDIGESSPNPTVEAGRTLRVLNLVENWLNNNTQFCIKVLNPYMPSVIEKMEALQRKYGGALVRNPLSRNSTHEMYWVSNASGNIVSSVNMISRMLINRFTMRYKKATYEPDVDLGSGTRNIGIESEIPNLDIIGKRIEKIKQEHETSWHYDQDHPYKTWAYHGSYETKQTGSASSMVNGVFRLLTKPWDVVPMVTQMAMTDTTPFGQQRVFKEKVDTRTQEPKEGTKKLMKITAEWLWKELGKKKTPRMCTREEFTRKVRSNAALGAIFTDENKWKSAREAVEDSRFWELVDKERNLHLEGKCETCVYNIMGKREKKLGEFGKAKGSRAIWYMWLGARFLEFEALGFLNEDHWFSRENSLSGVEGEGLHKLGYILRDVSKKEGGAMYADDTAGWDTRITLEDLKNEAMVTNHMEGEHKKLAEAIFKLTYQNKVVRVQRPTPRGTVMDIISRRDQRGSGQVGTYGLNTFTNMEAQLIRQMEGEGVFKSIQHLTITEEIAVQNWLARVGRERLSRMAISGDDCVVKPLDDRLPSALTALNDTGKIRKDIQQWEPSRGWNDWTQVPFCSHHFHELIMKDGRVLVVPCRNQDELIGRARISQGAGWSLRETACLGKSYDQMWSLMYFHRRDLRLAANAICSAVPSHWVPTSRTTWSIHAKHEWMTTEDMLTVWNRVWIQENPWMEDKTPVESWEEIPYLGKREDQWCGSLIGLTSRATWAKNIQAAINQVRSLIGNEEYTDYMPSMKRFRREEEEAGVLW
Wee1-like protein kinase, sequence (P30291 whole entry): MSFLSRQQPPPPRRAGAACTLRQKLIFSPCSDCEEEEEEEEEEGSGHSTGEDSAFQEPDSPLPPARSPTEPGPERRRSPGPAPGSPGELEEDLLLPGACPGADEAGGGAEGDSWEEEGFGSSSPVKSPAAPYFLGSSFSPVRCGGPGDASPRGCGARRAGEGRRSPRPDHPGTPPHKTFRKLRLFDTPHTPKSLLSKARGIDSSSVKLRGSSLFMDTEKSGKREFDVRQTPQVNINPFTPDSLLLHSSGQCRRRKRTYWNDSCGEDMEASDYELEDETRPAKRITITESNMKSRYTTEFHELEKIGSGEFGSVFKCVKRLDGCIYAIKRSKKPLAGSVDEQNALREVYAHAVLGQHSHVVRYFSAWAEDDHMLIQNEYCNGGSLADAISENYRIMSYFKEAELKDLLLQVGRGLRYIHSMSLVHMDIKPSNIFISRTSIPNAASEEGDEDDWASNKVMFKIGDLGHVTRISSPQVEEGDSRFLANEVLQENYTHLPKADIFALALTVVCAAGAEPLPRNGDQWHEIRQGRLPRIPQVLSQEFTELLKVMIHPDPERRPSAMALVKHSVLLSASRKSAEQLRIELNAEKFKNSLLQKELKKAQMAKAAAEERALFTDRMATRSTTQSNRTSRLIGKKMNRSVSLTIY
Cyclin-dependent kinase 5/CDK5 activator 1, sequence (Q00535 whole entry): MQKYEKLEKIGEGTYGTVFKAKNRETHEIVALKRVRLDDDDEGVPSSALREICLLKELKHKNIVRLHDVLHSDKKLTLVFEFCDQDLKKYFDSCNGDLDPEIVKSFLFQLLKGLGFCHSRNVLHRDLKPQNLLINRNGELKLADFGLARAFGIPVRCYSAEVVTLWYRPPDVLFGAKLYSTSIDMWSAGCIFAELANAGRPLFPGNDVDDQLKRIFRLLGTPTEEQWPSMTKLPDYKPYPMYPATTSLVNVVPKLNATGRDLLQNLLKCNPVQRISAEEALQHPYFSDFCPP
Cyclin-dependent kinase 5/CDK5 activator 1, sequence (Q15078 whole entry, further chain): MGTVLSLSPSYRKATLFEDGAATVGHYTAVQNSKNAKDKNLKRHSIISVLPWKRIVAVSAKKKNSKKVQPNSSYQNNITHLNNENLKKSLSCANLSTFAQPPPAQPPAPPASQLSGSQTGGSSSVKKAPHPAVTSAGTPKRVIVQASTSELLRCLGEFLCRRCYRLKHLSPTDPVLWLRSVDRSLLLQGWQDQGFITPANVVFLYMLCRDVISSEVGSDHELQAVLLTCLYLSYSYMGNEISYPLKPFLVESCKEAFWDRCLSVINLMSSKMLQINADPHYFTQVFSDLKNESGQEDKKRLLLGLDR
Protein Rev, sequence (P04618 whole entry): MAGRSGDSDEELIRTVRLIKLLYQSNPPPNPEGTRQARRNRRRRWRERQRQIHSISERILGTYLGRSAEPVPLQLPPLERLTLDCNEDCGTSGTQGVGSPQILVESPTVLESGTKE
G2/mitotic-specific cyclin-B1, sequence (P14635 whole entry): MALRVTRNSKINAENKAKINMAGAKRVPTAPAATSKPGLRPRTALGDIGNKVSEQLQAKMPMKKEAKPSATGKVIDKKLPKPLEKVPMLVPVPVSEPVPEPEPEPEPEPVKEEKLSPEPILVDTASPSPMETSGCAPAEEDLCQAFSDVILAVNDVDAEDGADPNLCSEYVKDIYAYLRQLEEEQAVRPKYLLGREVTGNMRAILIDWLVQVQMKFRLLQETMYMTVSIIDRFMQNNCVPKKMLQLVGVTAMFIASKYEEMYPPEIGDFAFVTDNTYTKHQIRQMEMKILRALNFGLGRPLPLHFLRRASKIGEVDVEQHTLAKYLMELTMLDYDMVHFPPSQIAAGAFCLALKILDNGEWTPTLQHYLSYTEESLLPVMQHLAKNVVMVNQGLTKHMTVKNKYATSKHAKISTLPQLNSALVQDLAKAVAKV

With `COc1ccc(N(CC(=O)NCCc2ccccc2)C(=O)CCl)cc1Cl` the AC50 [1] was 531 nM (active), the AC50 [2] was 231 nM (active) and the AC50 [3] was 793 nM (active). For the same molecule, the AC50 [4] was 223 nM (active).

For `CCOc1ccc2nc(N3CCCN(C(=O)Nc4ccccc4C)CC3)c(C#N)cc2c1`, the IC50 [5] was > 59.7 µM (inactive), the IC50 [6] was 38.7 µM (active) and the IC50 [7] was 20.3 µM (not active). The CC50 [8] was > 40 µM (active).

In the case of `CCCCOc1ccc(NC(=O)C(=O)NCCCn2ccnc2)cc1`, the EC50 [9] was 10.6 µM (active), the EC50 [10] was 13.9 µM (active) and the IC50 [11] was > 80 µM (inactive). For the same molecule, the EC50 [12] was 18.5 µM (active).

For `CCc1ccc(NC(=O)C(=O)NNC(=O)c2cccc(OC)c2)cc1`, the IC50 [13] was > 75 µM (active) and the IC50 [14] was 10.5 µM (active).

With `CCOc1ccc(NS(=O)(=O)c2ccc(C(=O)NNC(=O)c3ccccc3O)cc2)cc1` the AC50 [15] was 11.1 µM (active).

For `Cc1cc(O)nc(-n2nc(C)cc2NC(=O)Cc2ccc(F)cc2)n1`, the EC50 [16] was > 49.7 µM (inactive) and the EC50 [17] was > 49.7 µM (inactive).

In the case of `Cc1ccc(-n2[nH]c(C)c(/C=N/N3C(=O)c4cccc5cccc(c45)C3=O)c2=O)cc1`, the EC50 [18] was 3.95 µM (active), the IC50 [19] was 6.32 µM (active) and the IC50 [20] was > 66.6 µM (inactive). The EC50 [21] was > 31.5 µM (inactive) and the pIC50 [22] was less than 4.49.

With `CCN(CC)c1ccc(C(=C2C=CC(=[N+](CC)CC)C=C2)c2ccc(N(CC)CC)cc2)cc1` the CC50 [23] was 4.15 µM (active), the AC50 [24] was 12.3 µM (active) and the IC50 [25] was 10.8 µM (inactive). The IC50 [26] was > 40.6 µM (inactive), the AC50 [27] was 570 nM (active) and the IC50 [28] was 20.6 µM (active). The IC50 [29] was > 80 µM (inactive), the IC50 [30] was 10.9 µM (inactive) and the AC50 [31] was 31.9 µM (active). The AC50 [32] was 1.01 µM (active), the IC50 [33] was 774 nM (active) and the IC50 [34] was 44.7 µM (inactive).
